Test results published in PubChem BioAssay (NCI).
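How tested: cells in 96-well plates exposed to compound for 48 hours at five concentrations. At the TGI there is no net growth.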

How the values were obtained:
Assay in all cases: NCI anticancer screen, dose series, 48 h
[1] = system: OVCAR-3 ovarian
[2] = system: RPMI-8226 leukemia
[3] = system: K-562 leukemia
[4] = system: BT-549 breast
[5] = system: U251 CNS
[6] = system: HT29 colon
[7] = system: CAKI-1 renal
[8] = system: UACC-257 melanoma
[9] = system: PC-3 prostate
[10] = system: MDA-N
[11] = system: HS 578T breast

## O=C(C[n+]1ccccc1)N=N/C(C(=O)Nc1c(Cl)c(O)c2ccccc2c1O)=C1/C(=O)Oc2cc(O)ccc2C1=O
[1]
  TGI: 13.2 µM
[2]
  TGI: 54.6 µM
[3]
  TGI: > 100 µM
[4]
  TGI: 18.3 µM
[5]
  TGI: 45.9 µM
[6]
  TGI: 15.3 µM
[7]
  TGI: 18.1 µM
[8]
  TGI: 12.1 µM
[9]
  TGI: 33 µM

## CC(=O)N(CCc1ccccc1)C(C#N)c1ccc(OCCCCCCCCCCOc2ccc(C(C#N)N(CCc3ccccc3)C(C)=O)cc2)cc1 (stereo not drawn)
[10]
  TGI: > 100 µM
[1]
  TGI: > 100 µM
[3]
  TGI: > 100 µM
[4]
  TGI: 98.6 µM
[5]
  TGI: 64.1 µM
[6]
  TGI: > 100 µM
[7]
  TGI: > 100 µM
[8]
  TGI: > 100 µM
[11]
  TGI: 56.1 µM
[9]
  TGI: > 100 µM

## O=C(O)c1ccccc1C(=O)Nn1cnnc1
[10]
  TGI: > 100 µM
[1]
  TGI: > 100 µM
[2]
  TGI: > 100 µM
[3]
  TGI: > 100 µM
[4]
  TGI: > 100 µM
[5]
  TGI: > 100 µM
[6]
  TGI: > 100 µM
[8]
  TGI: > 100 µM
[9]
  TGI: > 100 µM

## O=C(C1C(c2ccccc2)N1C(c1ccccc1)c1ccccc1)C1C(c2ccccc2)N1C(c1ccccc1)c1ccccc1 (stereo not drawn)
[10]
  TGI: > 100 µM
[2]
  TGI: 10.9 µM
[3]
  TGI: 20.3 µM
[5]
  TGI: 71.8 µM
[6]
  TGI: 30.2 µM
[8]
  TGI: 40.3 µM
[11]
  TGI: 46.3 µM
[9]
  TGI: 53.7 µM

## OC(C/C(=N\N1CCCCC1)c1cccs1)(C(F)(F)F)C(F)(F)F
[10]
  TGI: > 10 µM
[1]
  TGI: > 10 µM
[2]
  TGI: > 10 µM
[3]
  TGI: > 10 µM
[5]
  TGI: > 10 µM
[6]
  TGI: > 10 µM
[7]
  TGI: > 10 µM
[8]
  TGI: > 10 µM
[11]
  TGI: > 10 µM
[9]
  TGI: > 10 µM

## Cc1ccc(SCC(CF)OCn2cc(F)c(=O)[nH]c2=O)cc1 (stereo not drawn)
[10]
  TGI: > 100 µM
[1]
  TGI: > 100 µM
[2]
  TGI: > 100 µM
[3]
  TGI: > 100 µM
[5]
  TGI: > 100 µM
[6]
  TGI: > 100 µM
[7]
  TGI: > 100 µM
[8]
  TGI: > 100 µM
[11]
  TGI: > 100 µM
[9]
  TGI: > 100 µM

## C[C@H]1C[C@H](C)c2ccccc2N(C)C1=Nc1ccccc1
[10]
  TGI: 68.7 µM
[1]
  TGI: 80 µM
[2]
  TGI: > 100 µM
[3]
  TGI: > 100 µM
[6]
  TGI: 23.3 µM
[7]
  TGI: > 100 µM
[8]
  TGI: 48.2 µM
[11]
  TGI: > 100 µM
[9]
  TGI: > 100 µM

## CC1=NN(C(=O)c2ccccc2O)C(=O)/C1=C/c1ccccc1O
[10]
  TGI: > 100 µM
[2]
  TGI: > 100 µM
[3]
  TGI: > 100 µM
[4]
  TGI: 50 µM
[5]
  TGI: > 100 µM
[6]
  TGI: > 100 µM
[7]
  TGI: > 27.3 µM
[8]
  TGI: 30.5 µM
[9]
  TGI: > 100 µM

## Cc1ccc(Nc2nc(N)nc3c2ncn3C2OC(CO)C(O)C2O)cc1 (stereo not drawn)
[10]
  TGI: > 100 µM
[1]
  TGI: > 100 µM
[2]
  TGI: > 100 µM
[3]
  TGI: > 100 µM
[5]
  TGI: > 100 µM
[6]
  TGI: > 100 µM
[7]
  TGI: > 100 µM
[8]
  TGI: > 100 µM
[9]
  TGI: > 100 µM

## O=c1[nH]c(=S)[nH]n1C(=S)n1[nH]c(=S)[nH]c1=O
[10]
  TGI: > 100 µM
[1]
  TGI: > 100 µM
[2]
  TGI: > 100 µM
[3]
  TGI: > 100 µM
[5]
  TGI: > 100 µM
[6]
  TGI: > 100 µM
[7]
  TGI: > 100 µM
[8]
  TGI: > 100 µM
[11]
  TGI: > 100 µM
[9]
  TGI: > 100 µM

## CC1=C(C(=O)NCCc2ccccc2)CC(C(=O)NCCc2ccccc2)=C(C)N1
[1]
  TGI: > 100 µM
[2]
  TGI: > 100 µM
[3]
  TGI: > 100 µM
[4]
  TGI: > 100 µM
[5]
  TGI: > 100 µM
[6]
  TGI: > 100 µM
[7]
  TGI: > 100 µM
[8]
  TGI: > 100 µM
[11]
  TGI: > 100 µM
[9]
  TGI: > 100 µM
